Results: US5710244A, “Derivatized calcitonins” (priority 1993, dated 1998)

Key:
[1] = target: T1, recombinant human calcitonin receptor (Homo sapiens, UniProt P30988); experiment: CRE-linked luciferase (cyclic AMP) induction in BHK/KZ10-20-48 cells expressing recombinant human calcitonin receptor; type: cell-based; conditions: for activity / potency compared with human calcitonin: text summary of the Table (hamster and human CT receptor); for % SCT EC50, Human CT receptor: EC50 as % of salmon calcitonin (SCT) EC50, CRE-luciferase, BHK/KZ10-20-48 cells, 4 h induction
T1 construct: expressed in transfected cells; host or cells: BHK/KZ10-20-48 (BHK cells carrying a CRE-luciferase reporter) transfected with pHOLLEX (ATCC 69067)
T1 sequence (P30988 25-474): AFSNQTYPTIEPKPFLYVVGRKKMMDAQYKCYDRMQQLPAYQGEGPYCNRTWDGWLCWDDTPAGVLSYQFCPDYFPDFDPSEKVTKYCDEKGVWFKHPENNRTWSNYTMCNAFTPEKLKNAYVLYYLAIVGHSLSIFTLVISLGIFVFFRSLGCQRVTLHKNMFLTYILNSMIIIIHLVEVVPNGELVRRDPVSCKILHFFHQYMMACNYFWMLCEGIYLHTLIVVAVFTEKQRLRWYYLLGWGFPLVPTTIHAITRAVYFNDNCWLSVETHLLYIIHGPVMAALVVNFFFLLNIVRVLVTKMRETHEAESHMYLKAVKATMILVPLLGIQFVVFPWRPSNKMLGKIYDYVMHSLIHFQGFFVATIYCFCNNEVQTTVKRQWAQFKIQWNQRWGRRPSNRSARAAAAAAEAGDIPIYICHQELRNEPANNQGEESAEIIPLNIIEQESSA
Method: BHK/KZ10-20-48 is a BHK cell line transfected with a plasmid containing a luciferase gene whose expression is dependent upon a cyclic AMP response element (CRE), which induces expression of downstream coding sequences in the presence of cyclic AMP. […] The vector without the calcitonin receptor was used to transfect the cell line BHK/KZ10-20-48 for a negative control. The transfectants were grown in a selective growth medium (Dulbecco's Modified Eagle Medium (DMEM) with 5% serum) containing both 500 μg/ml G418-neomycin and 250 nM methotrexate.
Cells expressing the calcitonin receptor were assayed in triplicate for the induction of the CRE-linked luciferase response to salmon calcitonin (SCT) and derivatized calcitonins at concentrations ranging from 10^-13 M to 10^-6 M. MICROLITE flat bottom tissue culture plates (Baxter Scientific Products, Chicago, Ill.) were set up such that each well contained 2×10^4 cells in 100 μl of selection media, and the cells were grown overnight. […] Induction was initiated by removing old medium from the wells and adding 100 μl of fresh growth medium and 100 μl of either 2X solution in triplicate sample wells. Uninduced luciferase levels were determined in triplicate wells to which 100 μl of DMEM containing 10% fetal calf serum was added. The plates were incubated for four hours at 37° C., 5% CO2 to allow induction of luciferase. Following induction, the media were removed, and the wells were washed once with 200 μl/well PBS. After the wash, 20 μl of a 1:5 dilution (in sterile water) of the stock Cell Culture Lysis Reagent (Luciferase Assay System, Promega Corp., Madison, Wis.) was added to each well, and the plates were incubated for 15 minutes at room temperature. The plates were transferred to a Labsystems Luminoskan microtiter luminometer (Labsystems Inc., Morton Grove, Ill.) which added 40 μl of Luciferase Assay Substrate (Luciferase Assay System, Promega), mixed the reaction for three seconds and integrated the luciferase signal for two seconds per well. The fold induction of luciferase for each compound was calculated as follows:

[2] = test system: endogenous hamster calcitonin receptor; experiment: CRE-linked luciferase (cyclic AMP) induction in BHK cells expressing endogenous hamster calcitonin receptor; type: cell-based; conditions: EC50 as % of salmon calcitonin (SCT) EC50; CRE-luciferase, BHK cells, 4 h induction
Method: A BHK cell line expressing the endogenous hamster calcitonin receptor was transfected with plasmid KZ10-20-48 to provide the CRE-inducible luciferase receptor described above. The transfected cells were cultured in selective growth medium containing both 500 μg/mL G418-neomycin and 250 nM methotrexate.
Cells expressing the calcitonin receptor were assayed in triplicate for the induction of the CRE-linked luciferase response to salmon calcitonin (SCT) and derivatized calcitonins at concentrations ranging from 10^-13 M to 10^-6 M. MICROLITE flat bottom tissue culture plates (Baxter Scientific Products, Chicago, Ill.) were set up such that each well contained 2×10^4 cells in 100 μl of selection media, and the cells were grown overnight. SCT and GF43 were prepared at 2X the final assay concentration to give 10^-13 to 10^-6 M in growth medium. Induction was initiated by removing old medium from the wells and adding 100 μl of fresh growth medium and 100 μl of either 2X solution in triplicate sample wells. Uninduced luciferase levels were determined in triplicate wells to which 100 μl of DMEM containing 10% fetal calf serum was added. The plates were incubated for four hours at 37° C., 5% CO2 to allow induction of luciferase. Following induction, the media were removed, and the wells were washed once with 200 μl/well PBS. After the wash, 20 μl of a 1:5 dilution (in sterile water) of the stock Cell Culture Lysis Reagent (Luciferase Assay System, Promega Corp., Madison, Wis.) was added to each well, and the plates were incubated for 15 minutes at room temperature. The plates were transferred to a Labsystems Luminoskan microtiter luminometer (Labsystems Inc., Morton Grove, Ill.) which added 40 μl of Luciferase Assay Substrate (Luciferase Assay System, Promega), mixed the reaction for three seconds and integrated the luciferase signal for two seconds per well. The fold induction of luciferase for each compound was calculated as follows:
Fold induction=Induced signal-Uninduced signal Uninduced signal

serum calcium in mice = experiment: In vivo effect on serum calcium levels in mice; conditions: Swiss-Webster male mice, single subcutaneous injection, 100 ng/ml, 1 μg/ml, 10 μg/ml; 0, 1 and 4 hours; FIGS. 1 and 2
Method: The biological activity of bipyridine-calcitonin in vivo was measured as the ability of BP4,4 -CT to lower serum calcium in mice as compared to the action of salmon calcitonin. Six-week old Swiss-Webster male mice (12 to 18 grams) were given single, subcutaneous injections of BP4,4 -CT, salmon calcitonin or vehicle. Blood samples for serum calcium measurements were collected from orbital sinus punctures at timed intervals of 0, 1 and 4 hours after injection. Serum calcium was analyzed using a Dacos Excel Analyzer (Coulter Electronics Company, Hialeah, Fla.). The compounds were given at the following doses with eight mice randomly assigned to each of the following groups: […]

| Compound | activity / potency compared with human calcitonin [1] | % SCT EC50, Hamster CT receptor [2] [%] | % SCT EC50, Human CT receptor [1] [%] | decrease of serum calcium levels (serum calcium in mice) |
| --- | --- | --- | --- | --- |
| ZP-9: DL-pipecolinic acid modified salmon calcitonin | greater activity than human calcitonin | 147 | – | – |
| CC(C)C[C@H](NC(=O)[C@H](CCCCN)NC(=O)CNC(=O)[C@H](CC(C)C)NC(=O)[C@@H](NC(=O)[C@@H]1CSSC[C@H](NC(=O)c2cccnc2)C(=O)N[C@@H](CO)C(=O)N[C@@H](CC(N)=O)C(=O)N[C@@H](CC(C)C)C(=O)N[C@@H](CO)C(=O)N[C@@H]([C@@H](C)O)C(=O)N1)C(C)C)C(=O)N[C@@H](CO)C(=O)N[C@@H](CCC(N)=O)C(=O)N[C@@H](CCC(=O)O)C(=O)N[C@@H](CC(C)C)C(=O)N[C@@H](Cc1c[nH]cn1)C(=O)N[C@@H](CCCCN)C(=O)N[C@@H](CC(C)C)C(=O)N[C@@H](CCC(N)=O)C(=O)N[C@H](C(=O)N[C@@H](Cc1ccc(O)cc1)C(=O)N1CCC[C@H]1C(=O)N[C@@H](CCCNC(=N)N)C(=O)N[C@H](C(=O)N[C@@H](CC(N)=O)C(=O)N[C@H](C(=O)NCC(=O)N[C@@H](CO)C(=O)NCC(=O)N[C@H](C(=O)N1CCC[C@H]1C(N)=O)[C@@H](C)O)[C@@H](C)O)[C@@H](C)O)[C@@H](C)O [ZP-5] | – | – | 112 | – |
| ZP-8: isonipecotic acid modified salmon calcitonin | greater activity than human calcitonin | 106 | – | – |
| ZP-1: salmon calcitonin N-terminally modified with 2,2'-bipyridine-4,4'-dicarboxylic acid | – | 73 | – | equally decreased serum calcium levels in a dose-dependent manner |
| CC(C)C[C@H](NC(=O)[C@H](CCCCN)NC(=O)CNC(=O)[C@H](CC(C)C)NC(=O)[C@@H](NC(=O)[C@@H]1CSSC[C@H](NC(=O)c2ccccn2)C(=O)N[C@@H](CO)C(=O)N[C@@H](CC(N)=O)C(=O)N[C@@H](CC(C)C)C(=O)N[C@@H](CO)C(=O)N[C@@H]([C@@H](C)O)C(=O)N1)C(C)C)C(=O)N[C@@H](CO)C(=O)N[C@@H](CCC(N)=O)C(=O)N[C@@H](CCC(=O)O)C(=O)N[C@@H](CC(C)C)C(=O)N[C@@H](Cc1c[nH]cn1)C(=O)N[C@@H](CCCCN)C(=O)N[C@@H](CC(C)C)C(=O)N[C@@H](CCC(N)=O)C(=O)N[C@H](C(=O)N[C@@H](Cc1ccc(O)cc1)C(=O)N1CCC[C@H]1C(=O)N[C@@H](CCCNC(=N)N)C(=O)N[C@H](C(=O)N[C@@H](CC(N)=O)C(=O)N[C@H](C(=O)NCC(=O)N[C@@H](CO)C(=O)NCC(=O)N[C@H](C(=O)N1CCC[C@H]1C(N)=O)[C@@H](C)O)[C@@H](C)O)[C@@H](C)O)[C@@H](C)O [ZP-6] | – | – | 140 | – |
| CC(C)C[C@H](NC(=O)[C@H](CCCCN)NC(=O)CNC(=O)[C@H](CC(C)C)NC(=O)[C@@H](NC(=O)[C@@H]1CSSC[C@H](N)C(=O)N[C@@H](CO)C(=O)N[C@@H](CC(N)=O)C(=O)N[C@@H](CC(C)C)C(=O)N[C@@H](CO)C(=O)N[C@@H]([C@@H](C)O)C(=O)N1)C(C)C)C(=O)N[C@@H](CO)C(=O)N[C@@H](CCC(N)=O)C(=O)N[C@@H](CCC(=O)O)C(=O)N[C@@H](CC(C)C)C(=O)N[C@@H](Cc1c[nH]cn1)C(=O)N[C@@H](CCCCN)C(=O)N[C@@H](CC(C)C)C(=O)N[C@@H](CCC(N)=O)C(=O)N[C@H](C(=O)N[C@@H](Cc1ccc(O)cc1)C(=O)N1CCC[C@H]1C(=O)N[C@@H](CCCNC(=N)N)C(=O)N[C@H](C(=O)N[C@@H](CC(N)=O)C(=O)N[C@H](C(=O)NCC(=O)N[C@@H](CO)C(=O)NCC(=O)N[C@H](C(=O)N1CCC[C@H]1C(N)=O)[C@@H](C)O)[C@@H](C)O)[C@@H](C)O)[C@@H](C)O [salmon calcitonin, reference compound] | – | – | – | equally decreased serum calcium levels in a dose-dependent manner |
